Measured values taken from patent US11590139B2, “Substituted aminopurine compounds, compositions thereof, and methods of treatment therewith” (Signal Pharmaceuticals, LLC, priority 2014, dated 2023).

Each compound was assayed on Lox-IMVI melanoma cell line (assay: Lox-IMVI anti-proliferative assay (growth inhibition, Cell Titer-Glo)). Details: Homo sapiens; IC50 activity level in the cell-based Lox-IMVI anti-proliferative assay; read-out: Activity.
Type: cell-based, human
Summary of the method: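 Growth inhibition is assessed over 72 h in RPMI + 10% FBS at 0.2% DMSO, with ATP-based luminescence used as the viability measure. IC50 is fitted from normalized dose-response data.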
In the case of NC(=O)[C@H]1CC[C@@H](n2c(Nc3c(F)cccc3Cl)nc3cnc(NC4CCC(F)(F)CC4)nc32)CC1 [Example 235, (1s,4s)-4-(8-(2-chloro-6-fluorophenylamino)-2-(4,4-difluorocyclohexylamino)-9H-purin-9-yl)cyclohexanecarboxamide], the IC50 is reported as 500 to 1000 nM.
For CC1(C)CC[C@@H](Nc2ncc3nc(Nc4c(F)cccc4F)n([C@H]4CC[C@@H](C(N)=O)CC4)c3n2)C[C@H]1O [Example 382, (1S,4s)-4-(8-(2,6-difluorophenylamino)-2-((1R,3R)-3-hydroxy-4,4-dimethylcyclohexylamino)-9H-purin-9-yl)cyclohexanecarboxamide], the IC50 was over 1000 nM.
For CS(=O)(=O)N1CCC(Nc2ncc3nc(Nc4c(F)cc(F)cc4Cl)n([C@H]4CC[C@@H](C(N)=O)CC4)c3n2)CC1 [Example 294, (1s,4s)-4-(8-(2-chloro-4,6-difluorophenylamino)-2-(1-(methylsulfonyl)piperidin-4-ylamino)-9H-purin-9-yl)cyclohexanecarboxamide], the IC50 was over 1000 nM.
NC(=O)[C@H]1CC[C@@H](n2c(Nc3c(F)cc(F)cc3Cl)nc3cnc(N[C@@H]4CCOC4)nc32)CC1 [Example 199, (1S,4s)-4-(8-(2-chloro-4,6-difluorophenylamino)-2-((R)-tetrahydrofuran-3-ylamino)-9H-purin-9-yl)cyclohexanecarboxamide] was tested, and the IC50 was 500 to 1000 nM.
In the case of NC(=O)[C@H]1CC[C@@H](n2c(Nc3c(F)cccc3F)nc3cnc(NC4CCC(F)(F)CC4)nc32)CC1 [Example 289, (1s,4s)-4-(2-(4,4-difluorocyclohexylamino)-8-(2,6-difluorophenylamino)-9H-purin-9-yl)cyclohexanecarboxamide], the IC50 is reported as over 1000 nM.
With NC(=O)[C@H]1CC[C@@H](n2c(Nc3c(F)cccc3Cl)nc3cnc(NC4COC4)nc32)CC1 [Example 57, (1s,4s)-4-(8-(2-chloro-6-fluorophenylamino)-2-(oxetan-3-ylamino)-9H-purin-9-yl)cyclohexanecarboxamide] the IC50 was over 1000 nM.
In the case of NC(=O)[C@H]1CC[C@@H](n2c(Nc3cccc(F)c3F)nc3cnc(NC4CCCC4)nc32)CC1 [Example 139, (1s,4s)-4-(2-(cyclopentylamino)-8-(2,3-difluorophenylamino)-9H-purin-9-yl)cyclohexanecarboxamide], the IC50 is reported as over 1000 nM.
For N#Cc1cc(Cl)c(Nc2nc3cnc(NC4CCOCC4)nc3n2[C@H]2CC[C@@H](C(N)=O)CC2)c(Cl)c1 [Example 278, (1s,4s)-4-(8-(2,6-dichloro-4-cyanophenylamino)-2-(tetrahydro-2H-pyran-4-ylamino)-9H-purin-9-yl)cyclohexanecarboxamide], the IC50 was under 250 nM.
NC(=O)[C@H]1CC[C@@H](n2c(Nc3cc(Cl)c(F)cc3F)nc3cnc(NC4CCOCC4)nc32)CC1 [Example 64, (1s,4s)-4-(8-(5-chloro-2,4-difluorophenylamino)-2-(tetrahydro-2H-pyran-4-ylamino)-9H-purin-9-yl)cyclohexanecarboxamide] was tested, and the IC50 was over 1000 nM.
Work on NC(=O)[C@H]1CC[C@@H](n2c(Nc3c(F)cc(F)cc3Cl)nc3cnc(NC4CCOCC4)nc32)CC1 [Example 53] yielded an IC50 of under 250 nM.
NC(=O)[C@H]1CC[C@@H](n2c(Nc3ccc(F)c(Cl)c3Cl)nc3cnc(NC4CCOCC4)nc32)CC1 [Example 81, (1s,4s)-4-(8-(2,3-dichloro-4-fluorophenylamino)-2-(tetrahydro-2H-pyran-4-ylamino)-9H-purin-9-yl)cyclohexanecarboxamide] showed an IC50 of over 1000 nM.
In the case of NC(=O)[C@H]1CC[C@@H](n2c(Nc3ccc(Cl)c(F)c3F)nc3cnc(NC4CC(F)(F)C4)nc32)CC1 [Example 232, (1s,4s)-4-(8-(4-chloro-2,3-difluorophenylamino)-2-(3,3-difluorocyclobutylamino)-9H-purin-9-yl)cyclohexanecarboxamide], the IC50 is reported as over 1000 nM.
In the case of C[C@@H]1CC[C@@H](Nc2ncc3nc(Nc4c(F)cccc4F)n([C@H]4CC[C@@H](C(N)=O)CC4)c3n2)C[C@H]1O [Example 343, (1S,4s)-4-(8-(2,6-difluorophenylamino)-2-((1R,3R,4R)-3-hydroxy-4-methylcyclohexylamino)-9H-purin-9-yl)cyclohexanecarboxamide], the IC50 is reported as over 1000 nM.
Compound NC(=O)[C@H]1CC[C@@H](n2c(Nc3c(F)cc(F)cc3Cl)nc3cnc(N[C@H]4CCOC4)nc32)CC1 [Example 241, (1R,4s)-4-(8-(2-chloro-4,6-difluorophenylamino)-2-((S)-tetrahydrofuran-3-ylamino)-9H-purin-9-yl)cyclohexanecarboxamide] has an IC50 of over 1000 nM.
NC(=O)[C@H]1CC[C@@H](n2c(Nc3cc(F)cc(Cl)c3F)nc3cnc(N[C@H]4C[C@H](O)C4)nc32)CC1 [Example 287, (1s,4s)-4-(8-(3-chloro-2,5-difluorophenylamino)-2-((1R,3r)-3-hydroxycyclobutylamino)-9H-purin-9-yl)cyclohexanecarboxamide] was tested, and the IC50 was over 1000 nM.

Same assay, conditions: Homo sapiens; Lox-IMVI anti-proliferative assay, IC50 activity level; read-out: Activity
C[C@]1(C(N)=O)CC[C@@H](n2c(Nc3c(F)cc(F)cc3F)nc3cnc(N[C@@H]4CCC[C@H](O)C4)nc32)CC1 [Example 563, (1S,4s)-4-(2-((1R,3S)-3-hydroxycyclohexylamino)-8-(2,4,6-trifluorophenylamino)-9H-purin-9-yl)-1-methylcyclohexanecarboxamide] was tested, and the IC50 was over 1000 nM.
In the case of C[C@]1(C(N)=O)CC[C@@H](n2c(Nc3c(F)cc(Cl)cc3F)nc3cnc(N[C@@H]4CCC[C@H](O)C4)nc32)CC1 [Example 566, (1S,4s)-4-(8-(4-chloro-2,6-difluorophenylamino)-2-((1R,3S)-3-hydroxycyclohexylamino)-9H-purin-9-yl)-1-methylcyclohexanecarboxamide], the IC50 is reported as 250 to 500 nM.
With NC(=O)[C@H]1CC[C@@H](n2c(Nc3c(F)cc(F)cc3Cl)nc3cnc(N[C@@H]4CCCC[C@H]4O)nc32)CC1 [Example 466, (1S,4s)-4-(8-(2-chloro-4,6-difluorophenylamino)-2-((1R,2R)-2-hydroxycyclohexylamino)-9H-purin-9-yl)cyclohexanecarboxamide] the IC50 was over 1000 nM.

Same assay, conditions: Homo sapiens; Lox-IMVI melanoma cell line, anti-proliferative assay; read-out: Activity (IC50 activity level)
Work on C[C@]1(C(N)=O)CC[C@@H](n2c(Nc3c(F)cc(Cl)cc3Cl)nc3cnc(N[C@@H]4CCC[C@@H](O)C4)nc32)CC1 [Example 620, (1S,4s)-4-(8-(2,4-dichloro-6-fluorophenylamino)-2-((1R,3R)-3-hydroxycyclohexylamino)-9H-purin-9-yl)-1-methylcyclohexanecarboxamide] yielded an IC50 of 500 to 1000 nM.
N#Cc1cc(F)c(Nc2nc3cnc(NC[C@@H]4CCCC[C@H]4O)nc3n2[C@H]2CC[C@@H](C(N)=O)CC2)c(Cl)c1 [Example 664, (1R,4s)-4-(8-(2-chloro-4-cyano-6-fluorophenylamino)-2-(((1S,2R)-2-hydroxycyclohexyl)methylamino)-9H-purin-9-yl)cyclohexanecarboxamide] gave an IC50 of over 1000 nM.
N#Cc1cc(Cl)c(Nc2nc3cnc(N[C@H]4CCC[C@H](O)C4)nc3n2[C@H]2CC[C@@H](C(N)=O)CC2)c(Cl)c1 [Example 688, (1R,4s)-4-(8-(2,6-dichloro-4-cyanophenylamino)-2-((1S,3S)-3-hydroxycyclohexylamino)-9H-purin-9-yl)cyclohexanecarboxamide] gave an IC50 of 250 to 500 nM.
With CC(C)OC(=O)N1CCC[C@@H](Nc2ncc3nc(Nc4c(F)cc(C#N)cc4F)n([C@H]4CC[C@@H](C(N)=O)CC4)c3n2)C1 [Example 771, (R)-isopropyl 3-(9-((1s,4S)-4-carbamoylcyclohexyl)-8-(4-cyano-2,6-difluorophenylamino)-9H-purin-2-ylamino)piperidine-1-carboxylate] the IC50 was over 1000 nM.
